Among the data in US10005769B2, “2,3-dihydrobenzofuran-5YL compounds as DYRK kinase inhibitors” (4SC DISCOVERY GMBH, priority 2013, dated 2018) are IC50 values, retold here.

The IC50 is the concentration that gives 50% inhibition.

In test [1] the test system is Hedgehog signaling pathway (Gli Reporter - NIH3T3 cell line). As to the kind of experiment: Hedgehog Reporter Assay (Gli-Reporter, luciferase, mSHH stimulated). The class given is cell-based, murine. Particulars: Mus musculus; Gli Reporter NIH3T3 cells, 1 μg/ml mSHH, 24 h. As to the method:
In order to investigate the potency of test compounds to inhibit the Hedgehog signaling pathway, a Gli-Reporter assay was performed. The “Gli Reporter-NIH3T3” cell line contains the firefly luciferase gene under the control of Gli responsive elements stably integrated into murine NIH3T3 cells (cells purchased from AMS Biotechnology ltd., 184 Milton Park, Abingdon OX14 4SE, U.K.). The luciferase expression correlates with activation of the hedgehog signaling pathway. This cell line is validated for its response to stimulation with murine Sonic Hedgehog and to treatment with inhibitors of the hedgehog signaling pathway. A multiplexed viability assay was used to discriminate inhibition on the pathway activity from cell toxicity. Growth Medium: DMEM (Dulbecco's Modified Eagle Medium); 10% Fetal Calf Serum; 1% Penicillin/Streptomycin; 500 μg/ml Geneticin (G418 Stock 50 mg/ml). Assay Medium: Opti-MEM® Reduced Serum Medium; 0.5% Calf Serum; 1% non-essential amino acids; 1 mM Na-pyruvate; 10 mM HEPES; 1% Penicillin/Streptomycin. 25,000 cells per well were seeded into a white 96 well plate in 100 μl growth medium and incubated over night at 37° C. and 5% CO2. After removing the supernatant the test compounds and controls were added in different concentrations in a final volume of 45 μl and incubated for 1 h at 37° C. and 5% CO2. For the stimulation of the Hedgehog pathway 5 μl of 10 μg/ml concentrated murine SHH (or mSHH; murine sonic hedgehog protein) was added to the cells. A final concentration of 1 μg/ml mSHH and 0.1% DMSO was reached per well. After incubation for 24 h at 37° C. the cells were investigated for viability and reporter activity. Viability: For the determination of the viability of the treated cells the CellTiter-FluorTM Kit from Promega comprising the fluorogenic, cell-permeant peptide substrate ([…]-aminofluorocoumarin GF-AFC was used. Roughly, only proteases of viable cells are able to cleave the GF-AFC. By this cleavage the fluorescent AFC is set free and can be detected in a fluorescence reader. For this assay 10 μl of GF-AFC substrate (CellTiter-FluorTM, Promega #G6082) was diluted in 2 ml assay buffer from the CellTiter-FluorTM Kit and 10 μl of this dilution was added per well to the cells and incubated for 30 min at 37° C. The fluorescence was measured with an excitation of 380-400 nm and an emission of 505 nm. Reporter activity: The firefly luciferase reporter activity was detected with the ONE-GloTM Luciferase Assay System from Promega. For this assay 50 μl ONE-Glo luciferase reagent (Promega #E6120, contains cell lysis buffer and luciferin) was added to each well and incubated at room temperature for 5 min. Luminescence was detected in a plate reader and served as a measure for reporter activity.
In general terms: In a reporter assay the amount or activity of a reporter protein is the signal.

The next test addresses DYRK1B (Homo sapiens (Human), UniProt Q9Y463). Briefly: DYRK1B Kinase Assay (33P ATP, DYRKtide substrate, Reaction Biology Corp.). The class given is biochemical. Particulars: 0.3 nM DYRK1B, 20 μM DYRKtide, 10 μM ATP, 25° C., 120 min. As to the method: The assay was carried out by Reaction Biology Corp., […], Pa., USA according to specifications by Reaction Biology Corp., as detailed herein below and further described in Anastassiadis et al., Nature Biotechnology, 29 (2011) 1039-1045. The substrate DYRKtide (synthetic peptide RRRFRPASPLRGPPK) was dissolved in freshly prepared Base Reaction Buffer (20 mM Hepes (pH 7.5), 10 mM MgCl2, 1 mM EGTA, 0.02% Brij35, 0.02 mg/ml BSA, 0.1 mM Na3VO4, 2 mM DTT, 1% DMSO) at a concentration of 20 μM. DYRK1B was added to the substrate solution in a concentration of 0.3 nM and gently mixed. Dilution series of the compounds according to the present invention in DMSO were prepared. Each dilution was added to a batch of the above reaction mix, followed 20 min later by addition of a mixture of ATP and ^33P ATP (specific activity 0.01 μCi/μl final) to a final concentration of 10 μM. Reactions were carried out at 25° C. for 120 min, followed by spotting the reactions onto P81 ion exchange filter paper. Unbound phosphate was removed by extensive washing of the filters in 0.75% phosphoric acid. […] IC50 values and curve fits were obtained using Prism (Graph Pad Software). DYRK1B used in the above assays are further described in the below table: [table] Exemplary compound dilution series, final concentrations of compound in the assay vessel; the individual concentrations and the range of concentrations covered by the dilution series may differ for each compound, as long as enough data points are obtained to determine the compound's IC50: DYRK 1[…].

DYRK1B, sequence (Q9Y463 whole entry): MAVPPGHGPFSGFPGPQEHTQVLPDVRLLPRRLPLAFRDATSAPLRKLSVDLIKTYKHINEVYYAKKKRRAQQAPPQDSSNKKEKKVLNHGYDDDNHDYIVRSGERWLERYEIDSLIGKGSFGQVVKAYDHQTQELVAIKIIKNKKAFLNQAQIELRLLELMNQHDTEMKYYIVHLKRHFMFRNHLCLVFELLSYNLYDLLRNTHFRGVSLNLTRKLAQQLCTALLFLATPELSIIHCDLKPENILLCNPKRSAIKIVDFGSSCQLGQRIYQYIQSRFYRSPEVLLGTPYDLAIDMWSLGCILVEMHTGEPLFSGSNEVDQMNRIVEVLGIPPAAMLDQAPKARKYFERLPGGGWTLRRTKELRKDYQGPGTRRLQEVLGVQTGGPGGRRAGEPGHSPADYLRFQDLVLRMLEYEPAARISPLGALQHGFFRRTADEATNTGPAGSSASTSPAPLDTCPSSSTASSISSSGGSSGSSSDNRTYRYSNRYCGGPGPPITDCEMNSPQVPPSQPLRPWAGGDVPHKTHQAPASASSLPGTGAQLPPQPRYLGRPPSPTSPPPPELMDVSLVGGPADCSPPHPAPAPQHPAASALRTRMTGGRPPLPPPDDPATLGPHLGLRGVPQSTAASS

As to `O=C(Nc1ccccn1)c1csc(-c2ccc3c(c2)CCO3)n1` [Compound 17, 2-(2,3-Dihydrobenzofuran-5-yl)-N-(pyridin-2-yl)thiazole-4-carboxamide], the values for the IC50 (in test [1]; against DYRK1B) were 3000 to 10000 nM and 29.4 nM, respectively.

Consider `O=C(Nc1ncc[nH]1)c1csc(-c2ccc3c(c2)CCO3)n1` [Compound 11, 2-(2,3-Dihydrobenzofuran-5-yl)-N-(1H-imidazol-2-yl)thiazole-4-carboxamide], for which the half-inhibitory concentration (IC50) in test [1] was 1000 to 3000 nM; at DYRK1B it was 66.8 nM.

With `CCOC(=O)c1ccc2[nH]c(NC(=O)c3csc(-c4ccc5c(c4)CCO5)n3)nc2c1` [Compound 9, Ethyl 2-(2-(2,3-dihydrobenzofuran-5-yl)thiazole-4-carboxamido)-1H-benzo[d]imidazole-5-carboxylate], the IC50 was less than 1000 nM in test [1] and 3.63 nM at DYRK1B.

Take `CN(C)C(=O)c1ccc2[nH]c(NC(=O)c3csc(-c4ccc5c(c4)CCO5)n3)nc2c1` [Compound 7, 2-(2,3-Dihydrobenzofuran-5-yl)-N-(5-(dimethylcarbamoyl)-1H-benzo[d]imidazol-2-yl)thiazole-4-carboxamide]: the IC50 is less than 1000 nM in test [1] and 1.74 nM against DYRK1B.

On to `O=C(Nc1nc2c(C(F)(F)F)cccc2[nH]1)c1csc(-c2ccc3c(c2)CCO3)n1` [Compound 12, 2-(2,3-Dihydrobenzofuran-5-yl)-N-(4-(trifluoromethyl)-1H-benzo[d]imidazol-2-yl)thiazole-4-carboxamide], for which the IC50 was 3000 to 10000 nM in test [1] and 156 nM at DYRK1B.

Regarding `O=C(Nc1nc2cc(Cl)ccc2[nH]1)c1csc(-c2ccc3c(c2)CCO3)n1` [Compound 6, N-(5-Chloro-1H-benzo[d]imidazol-2-yl)-2-(2,3-dihydrobenzofuran-5-yl)thiazole-4-carboxamide], the IC50 in test [1] was 1000 to 3000 nM; against DYRK1B it was 1.9 nM.

Turning to `CCN1CCN(C(=O)c2ccc3[nH]c(NC(=O)c4csc(-c5ccc6c(c5)CCO6)n4)nc3c2)CC1` [Compound 47, 2-(2,3-Dihydrobenzofuran-5-yl)-N-(5-(4-ethylpiperazine-1-carbonyl)-1H-benzo[d]imidazol-2-yl)thiazole-4-carboxamide], the IC50 in test [1] was less than 1000 nM; against DYRK1B it was 2.17 nM.

For the compound `CN(C)C(=O)c1n[nH]c(NC(=O)c2csc(-c3ccc4c(c3)CCO4)n2)n1` [Compound 29, 2-(2,3-Dihydrobenzofuran-5-yl)-N-(5-(dimethylcarbamoyl)-4H-1,2,4-triazol-3-yl)thiazole-4-carboxamide], the values for the half-inhibitory concentration (IC50) (in test [1]; against DYRK1B) were 3000 to 10000 nM and 72 nM, respectively.

With `CC(=O)c1csc(NC(=O)c2csc(-c3ccc4c(c3)CCO4)n2)n1` [Compound 76, N-(4-Acetyl-1,3-thiazol-2-yl)-2-(2,3-dihydro-1-benzofuran-5-yl)-1,3-thiazole-4-carboxamide], at DYRK1B, the half-inhibitory concentration (IC50) turned out to be 185 nM.

At DYRK1B, `CCOC(=O)c1csc(NC(=O)c2csc(-c3ccc4c(c3)CCO4)n2)n1` [Compound 78, Ethyl 2-[2-(2,3-dihydro-1-benzofuran-5-yl)-1,3-thiazole-4-amido]-1,3-thiazole-4-carboxylate] came in with an IC50 of 410 nM.

On to `O=C(Nc1cc[nH]n1)c1csc(-c2ccc3c(c2)CCO3)n1` [Compound 62, 2-(2,3-Dihydro-1-benzofuran-5-yl)-N-(1H-pyrazol-3-yl)-1,3-thiazole-4-carboxamide], for which the IC50 on DYRK1B turned out to be 42.4 nM.

With `N#Cc1ccnc(NC(=O)c2csc(-c3ccc4c(c3)CCO4)n2)c1` [Compound 18, N-(4-Cyanopyridin-2-yl)-2-(2,3-dihydrobenzofuran-5-yl)thiazole-4-carboxamide], at DYRK1B, half-maximal inhibition (IC50) required 19.5 nM.

At DYRK1B, `O=C(Nc1nnc(Br)s1)c1csc(-c2ccc3c(c2)CCO3)n1` [Compound 67, N-(5-Bromo-1,3,4-thiadiazol-2-yl)-2-(2,3-dihydro-1-benzofuran-5-yl)-1,3-thiazole-4-carboxamide] returned an IC50 of 65.9 nM.

With `N#CCSc1n[nH]c(NC(=O)c2csc(-c3ccc4c(c3)CCO4)n2)n1` [Compound 38, N-(3-((Cyanomethyl)thio)-1H-1,2,4-triazol-5-yl)-2-(2,3-dihydrobenzofuran-5-yl)thiazole-4-carboxamide], the 50% inhibitory concentration (IC50) at DYRK1B was 3.97 nM.

`Cc1cnc(NC(=O)c2csc(-c3ccc4c(c3)CCO4)n2)s1` [Compound 58, 2-(2,3-Dihydro-1-benzofuran-5-yl)-N-(5-methyl-1,3-thiazol-2-yl)-1,3-thiazole-4-carboxamide]: the IC50 against DYRK1B came to 27.6 nM. Compared with the last compound, the IC50 is about 7-fold higher.

On DYRK1B, `Cc1csc(NC(=O)c2csc(-c3ccc4c(c3)CCO4)n2)n1` [Compound 72, 2-(2,3-Dihydro-1-benzofuran-5-yl)-N-(4-methyl-1,3-thiazol-2-yl)-1,3-thiazole-4-carboxamide] had an IC50 of 111 nM.

Take `CCOC(=O)C1CCN(c2nnc(NC(=O)c3csc(-c4ccc5c(c4)CCO5)n3)s2)CC1` [Compound 53, Ethyl 1-{5-[2-(2,3-dihydro-1-benzofuran-5-yl)-1,3-thiazole-4-amido]-1,3,4-thiadiazol-2-yl}piperidine-4-carboxylate]: at DYRK1B, the IC50 amounted to 14.4 nM.

`O=C(Nc1nc2ccccc2s1)c1csc(-c2ccc3c(c2)CCO3)n1` [Compound 75, N-(1,3-Benzothiazol-2-yl)-2-(2,3-dihydro-1-benzofuran-5-yl)-1,3-thiazole-4-carboxamide] gave an IC50 against DYRK1B of 135 nM.

The compound `O=C(Nc1nc2ccc(CN3CCOCC3)cc2s1)c1csc(-c2ccc3c(c2)CCO3)n1` [Compound 40, 2-(2,3-Dihydrobenzofuran-5-yl)-N-(6-(morpholinomethyl)benzo[d]thiazol-2-yl)thiazole-4-carboxamide] showed an IC50 on DYRK1B of 15.7 nM.

With `O=C(Nc1nc(SCCc2ccccc2)n[nH]1)c1csc(-c2ccc3c(c2)CCO3)n1` [Compound 37, 2-(2,3-Dihydrobenzofuran-5-yl)-N-(3-(phenethylthio)-1H-1,2,4-triazol-5-yl)thiazole-4-carboxamide], on DYRK1B, half-maximal inhibition (IC50) was put at 56 nM. This IC50 is about 3.6-fold higher than that of the compound before.

Compound `O=C(Nc1ncccc1O)c1csc(-c2ccc3c(c2)CCO3)n1` [Compound 16, 2-(2,3-Dihydrobenzofuran-5-yl)-N-(3-hydroxypyridin-2-yl)thiazole-4-carboxamide] yielded an IC50 on DYRK1B of 177 nM.

The compound `O=C(Nc1nc2ccc(C(=O)N3CCOCC3)cc2s1)c1csc(-c2ccc3c(c2)CCO3)n1` [Compound 51, 2-(2,3-Dihydro-1-benzofuran-5-yl)-N-[6-(morpholine-4-carbonyl)-1,3-benzothiazol-2-yl]-1,3-thiazole-4-carboxamide] returned an IC50 on DYRK1B of 9.17 nM.

In turn, `O=C(Nc1nc2cc(C(=O)c3cccs3)ccc2[nH]1)c1csc(-c2ccc3c(c2)CCO3)n1` [Compound 48, 2-(2,3-Dihydro-1-benzofuran-5-yl)-N-[5-(thiophene-2-carbonyl)-1H-1,3-benzodiazol-2-yl]-1,3-thiazole-4-carboxamide] showed a half-maximal inhibitory concentration (IC50) against DYRK1B of 5.57 nM.

`O=C(Nc1nncs1)c1csc(-c2ccc3c(c2)CCO3)n1` [Compound 71, 2-(2,3-Dihydro-1-benzofuran-5-yl)-N-(1,3,4-thiadiazol-2-yl)-1,3-thiazole-4-carboxamide] registered an IC50 on DYRK1B of 76.6 nM.
